How the values were obtained:
[1] = Compatibility studies with IV infusion sets, IV bags and syringes (Study COM-003); assay type: physicochemical
Source text: Therefore, DEHP-containing IV infusion sets, IV bags or syringes should not be used in mixing or administration of CPI-613. […] Therefore, these 4 types of IV infusion sets, and IV infusion sets that are made with the same materials, can be used to administer CPI-613. […] Therefore, any of these types of syringes, and syringes that are made with the same materials, can be used to administer CPI-613. Also, glass syringes can also be used, since glass (such as glass containers) is compatible with CPI-613 drug product. • Norm-Ject, polyethlyene barrel, polyethylene plunger, latex free (Henke Sass Wolf GMBH) syringes • Becton Dickinson syringes • Terumo syringes • Monoject syringes • Glass syringes

[2] = Animal studies of IV administration of CPI-613; assay type: in vivo
Description: CPI-613 must be administered IV, via an IV catheter that is free flowing and free of air in the dead space of the IV catheter, to minimize vascular irritation, inflammation and acute toxicity of CPI-613. […] To avoid local reactions at and around the site of administration, CPI-613 must be administered via a central venous catheter.
CPI-613 must not be administered as a bolus, but by infusion, at a rate of ˜0.5 mL/min, via a central venous catheter with D5W running at a rate of about 125-150 mL/hr. This is to minimize potential acute toxicity of CPI-613, according to animal studies.

[3] = Toxicities/side effects seen in prior CPI-613 studies treating other types of cancers; assay type: in vivo
Source text: Given the limited data for treating Burkitt lymphoma and other hematological malignancies with CPI-613, the following are the most frequent toxicities seen in prior CPI-613 studies treating other types of cancers.

[4] = Photosensitivity of CPI-613; assay type: physicochemical
Description: Each vial contains 10 mL of CPI-613 at a concentration 50 mg/mL, equivalent to 500 mg of CPI-613. The drug product of CPI-613 is a clear and colorless solution that is free of any particulate matter. CPI-613 should be stored under refrigeration, at 2°-8° C. (36°-46° F.), except when being prepared for administration.

[5] = Maximum tolerated dose of CPI-613 as a single agent; assay type: in vivo; settings: CPI-613 given as a single agent
Description: In the event that the DLT in ≥2 patients is not observed once the 3,000 mg/m^2 cohort has been tested, dose escalation is also considered to be complete since 3,000 mg/m^2 is the MTD of CPI-613 when given as a single agent. Three additional patients will be enrolled at the MTD for a total of six expected patients at this dose level.

[6] = pH and stability of CPI-613 drug product diluted with D5W; assay type: physicochemical; settings: solution in 1M aqueous triethanolamine diluted from 50 mg/mL to as low as 4 mg/mL with D5W
Description: A solution of 6,8-bis-benzylthio-octanoic acid in 1M aqueous triethanolamine is diluted from 50 mg/mL to as low as 4 mg/mL with sterile 5% dextrose for injection (D5W) prior to administration. After dilution with D5W, the solution is clear and has a pH of 8.4-8.8. The D5W solution of 6,8-bis-benzylthio-octanoic acid is administered as an IV infusion over two hours via a central venous catheter on days 1-5 of every cycle.
CPI-613 must be diluted from 50 mg/mL to 12.5 mg/mL with 5% Dextrose Water (D5W) (i.e., 1 portion of CPI-613 diluted with 3 portions of D5W) prior to administration. The diluted drug product should be visually inspected for clarity. […] After dilution with sterile D5W, the solution is clear and has a pH of 8.4-8.8.

O=C(O)CCCCC(CCSCc1ccccc1)SCc1ccccc1 (stereo not drawn) [CPI-613, 6,8-bis-benzylthio-octanoic acid]
Compatibility with IV infusion sets ([1]; PVC, latex and polyethylene sets): compatible with 4 commonly used IV infusion sets | Leaching of DEHP from IV infusion sets and IV bags ([1]; Study COM-003): can cause leaching of Diethylhexyl Phthalate (DEHP) | Effect of accidental co-administration of extra air in the dead space of IV catheters ([2]; animal studies, IV administration): potential to induce acute toxicity | Effect of accidental leakage into the perivascular space during IV administration ([2]; in vivo, iv): can induce significant local inflammation | Common side effects [3]: nausea, leukocytopenia, neutrophils (neutropenia), fatigue, and elevated alkaline phosphatase (ALP) | Rare but serious side effects [3]: infections, disseminated intravascular coagulation, elevated troponin, and renal failure | Photosensitivity [4]: slightly photosensitive | MTD [5]: 3,000 mg/m^2 | pH of solution after dilution with D5W [6]: 8.4-8.8

— patent US20220151994A1, “THERAPEUTIC METHODS AND COMPOSITIONS FOR TREATING LYMPHOMA USING 6,8-BISBENZYLTHIO-OCTANOIC ACID” (Rafael Pharmaceuticals, Inc., priority 2019, published 2022)
